The results in this text go back to patent US10815238B2, “Antimicrobial compounds and methods of making and using the same” (BIOVERSYS AG, priority 2013, dated 2020).

Each structure is given as a SMILES string. Bounds are passed on as bounds.

Assay [1] deals with Staphylococcus aureus (S. aureus) 11540 strain. As to the kind of experiment: Standard microdilution assay, MIC against S. aureus 11540. It counts as cell-based. The settings on record: S. aureus 11540 strain, standard microdilution assay, cutoff 16 micrograms/mL, read-out: MIC S. aureus. An outline of the steps: (§1)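 Scoring as + or − used a 16 micrograms/mL cutoff on minimum inhibitory concentrations. These came from CLSI-standard microdilution, quality-controlled with reference strains tested in the same run.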
In general terms: Broth dilution looks for growth in wells or tubes with falling amounts of substance.

In assay [2] the test system is Eschericia coli (E. coli) strain ATCC25922. Nature of the assay: Standard microdilution assay, MIC against E. coli ATCC25922. The note with it: Escherichia coli; E. coli strain ATCC25922, standard microdilution assay; cutoff 16 micrograms/mL; read-out: MIC E. Coli. It counts as cell-based. An outline of the steps: as §1

In general, MIC refers to the smallest concentration in the dilution series that meets the test's criterion for growth inhibition. Take `C[C@H](N)CCCc1cc(OC(F)(F)F)c(F)c(-c2cc3cn(-c4ccc([C@H](C)NCC[C@H](CC#N)NC(=N)N)cc4)c(=O)nc3[nH]2)c1` [Compound 333]: the MIC in assay [1] and in assay [2] was below 16 µg/mL in each case.
On to `C[C@H](N)CCCc1cc(OC(F)(F)F)c(F)c(-c2cc3cn(-c4ccc([C@H](C)N[C@H](CO)CCNC(=N)N)cc4)c(=O)nc3[nH]2)c1` [Compound 366], for which the MIC in assay [1] and in assay [2] was below 16 µg/mL each time.
On to `C[C@H](N)CCCc1cc(OC(F)(F)F)c(F)c(-c2cc3cn(-c4ccc(CN[C@H](C)C[C@H](CN)NC(=N)N)cc4)c(=O)nc3[nH]2)c1` [Compound 398], for which the MIC in assay [1] and in assay [2] was below 16 µg/mL throughout.
In the case of `CC(=O)NCC[C@@H]1CCC[C@@H](c2ccc(-n3cc4cc(-c5cc(CCC[C@H](C)N)cc(Cl)c5F)[nH]c4nc3=O)cc2)N1` [Compound 501], the MIC in assay [1] and in assay [2] was above 16 µg/mL in each case.
Consider `C[C@H](N)CCCc1cc(Cl)c(F)c(-c2cc3cn(-c4ccc(CN[C@H](C)C[C@@H](CN)NC(=N)N)cc4)c(=O)nc3[nH]2)c1` [Compound 401], for which the MIC in assay [1] and in assay [2] was below 16 µg/mL each time.
As for `C[C@H](N)CCCc1cc(OC(F)(F)F)c(F)c(-c2cc3cn(-c4ccc(C(CO)CNC(=N)N)cc4)c(=O)nc3[nH]2)c1` (some centres unmarked) [Compound 480], the MIC in assay [1] and in assay [2] was below 16 µg/mL in each case.
`C[C@H](N)CCCN1CC[C@@H](c2cc3cn(-c4ccc([C@H](C)NCCCNC(=N)N)cc4)c(=O)nc3[nH]2)C1` [Compound 578]: the MIC in assay [1] and in assay [2] was below 16 µg/mL each time.
As to `C[C@H](N)CCCc1cc(Cl)c(F)c(-c2cc3cn(-c4ccc([C@H]5CCC[C@H](CCNC(=N)N)N5)cc4)c(=O)nc3[nH]2)c1` [Compound 433], the MIC in assay [1] and in assay [2] was below 16 µg/mL in each case.
As for `C[C@H](N)CCCc1cc(OC(F)(F)F)c(F)c(-c2cc3cn(-c4ccc(CNCC[C@H](CN5CCOCC5)NC(=N)N)cc4)c(=O)nc3[nH]2)c1` [Compound 328], the MIC in assay [1] and in assay [2] was below 16 µg/mL each time.
With `C[C@H](N)CCCc1cc(Cl)c(F)c(-c2cc3cn(-c4ccc([C@@H]5CCC[C@@H](CCc6c[nH]nn6)N5)cc4)c(=O)nc3[nH]2)c1` [Compound 543], the MIC in assay [1] and in assay [2] was above 16 µg/mL in each case.
As for `C[C@H](N)CCCc1cc(Cl)c(F)c(-c2cc3cn(-c4ccc([C@@H]5CCC[C@@H](Cc6nnc[nH]6)N5)cc4)c(=O)nc3[nH]2)c1` [Compound 496], the MIC in assay [1] and in assay [2] was above 16 µg/mL each time.
On to `C[C@H](N)CCCc1cc(OC(F)(F)F)c(F)c(-c2cc3cn(-c4ccc([C@H]5CC(CCNC(=N)N)CN5)cc4)c(=O)nc3[nH]2)c1` (some centres unmarked) [Compound 470], for which the MIC in assay [1] and in assay [2] was below 16 µg/mL in each case.
In the case of `C[C@H](N)CCCc1cc(Cl)c(F)c(-c2cc3cn(-c4ccc([C@@H]5COC[C@@H](CNC(=N)N)N5)cc4)c(=O)nc3[nH]2)c1` [Compound 465], the MIC in assay [1] and in assay [2] was below 16 µg/mL each time.
`C[C@H](N)CCCc1cc(Cl)c(F)c(-c2cc3cn(-c4ccc(C5(CCNC(=N)N)CN(C(=N)N)C5)cc4)c(=O)nc3[nH]2)c1` [Compound 404]: the MIC in assay [1] and in assay [2] was below 16 µg/mL in each case.
`C[C@H](N)CCCc1cc(Cl)c(F)c(-c2cc3cn(-c4ccc([C@H](C)NCC[C@@H](CNC(=O)CN)NC(=N)N)cc4)c(=O)nc3[nH]2)c1` [Compound 422]: the MIC in assay [1] and in assay [2] was below 16 µg/mL each time.
In the case of `C[C@H](N)CCCc1cc(Cl)c(F)c(-c2cc3cn(-c4ccc([C@@H]5CCC[C@@H](CCCNC(=N)N)N5)cc4)c(=O)nc3[nH]2)c1` [Compound 556], the MIC in assay [1] and in assay [2] was below 16 µg/mL in each case.
With `C[C@H](N)CCCc1cc(Cl)c(F)c(-c2cc3cn(-c4ccc([C@H](C)NCC[C@@H](CSc5nccs5)NC(=N)N)cc4)c(=O)nc3[nH]2)c1` [Compound 365], the MIC in assay [1] and in assay [2] was below 16 µg/mL each time.
With `C[C@H](N)CCCc1cc(Cl)c(F)c(-c2cc3cn(-c4ccc(CN[C@H](C)C[C@@H](CCO)NC(=N)N)cc4)c(=O)nc3[nH]2)c1` [Compound 381], the MIC in assay [1] and in assay [2] was below 16 µg/mL each time.
For the compound `C=C[C@@H](CCNC(=N)N)NCc1ccc(-n2cc3cc(-c4cc(CCC[C@H](C)N)cc(OC(F)(F)F)c4F)[nH]c3nc2=O)cc1` [Compound 388], the MIC in assay [1] and in assay [2] was below 16 µg/mL in each case.
`C[C@H](N)CCCc1cc(Cl)c(F)c(-c2cc3cn(-c4ccc(CN[C@@H](C)C[C@@H](CO)NC(=N)N)cc4)c(=O)nc3[nH]2)c1` [Compound 436]: the MIC in assay [1] and in assay [2] was below 16 µg/mL throughout.
Consider `C[C@H](CN)CN1CC[C@@H](c2cc3cn(-c4ccc([C@H](C)NCCCNC(=N)N)cc4)c(=O)nc3[nH]2)C1` [Compound 570], for which the MIC in assay [1] and in assay [2] was below 16 µg/mL each time.
In the case of `N=C(N)N[C@@H](CN)CCNCc1ccc(-n2cc3cc(-c4cc(CCC[C@@H](N)CO)cc(Cl)c4F)[nH]c3nc2=O)cc1` [Compound 399], the MIC in assay [1] and in assay [2] was below 16 µg/mL throughout.
As to `NCC[C@@H]1CCC[C@@H](c2ccc(-n3cc4cc(-c5cc(CCC[C@@H](N)CO)cc(Cl)c5F)[nH]c4nc3=O)cc2)N1` [Compound 483], the MIC in assay [1] and in assay [2] was below 16 µg/mL throughout.
As for `C=C[C@@H]1COC[C@H](c2ccc(-n3cc4cc(-c5cc(CCC[C@H](C)N)cc(Cl)c5F)[nH]c4nc3=O)cc2)N1` [Compound 374], the MIC in assay [1] and in assay [2] was above 16 µg/mL each time.
On to `C[C@H](N)CCCc1cc(Cl)c(F)c(-c2cc3cn(-c4ccc([C@@H]5COC[C@@H](CO)N5)cc4)c(=O)nc3[nH]2)c1` [Compound 452], for which the MIC in assay [1] and in assay [2] was above 16 µg/mL in each case.
Consider `C[C@H](N)CCCc1cc(Cl)c(F)c(-c2cc3cn(-c4ccc([C@@H]5CCC[C@@H](CCn6cnc([N+](=O)[O-])c6)N5)cc4)c(=O)nc3[nH]2)c1` [Compound 548], for which the MIC in assay [1] was below 16 µg/mL; in assay [2], above 16 µg/mL.
In the case of `C[C@H](N)CCCc1cc(Cl)c(F)c(-c2cc3cn(-c4ccc([C@H](C)NCC[C@@H]5COC(=O)N5)cc4)c(=O)nc3[nH]2)c1` [Compound 386], the MIC in assay [1] and in assay [2] was below 16 µg/mL each time.
For the compound `C[C@H](N)CCCc1cc(Cl)c(F)c(-c2cc3cn(-c4ccc([C@@H]5CCC[C@@H](CNCC6CCOCC6)N5)cc4)c(=O)nc3[nH]2)c1` [Compound 550], the MIC in assay [1] and in assay [2] was above 16 µg/mL each time.
Turning to `C[C@H](N)CCCc1cc(Cl)c(F)c(-c2cc3cn(-c4ccc(CN[C@H](CCN)Cn5ccnn5)cc4)c(=O)nc3[nH]2)c1` [Compound 500], the MIC in assay [1] and in assay [2] was below 16 µg/mL each time.
On to `CC#C[C@@H](CCNC(=N)N)NCc1ccc(-n2cc3cc(-c4cc(CCC[C@H](C)N)cc(Cl)c4F)[nH]c3nc2=O)cc1` [Compound 507], for which the MIC in assay [1] and in assay [2] was below 16 µg/mL each time.
For `C[C@H](N)CCCc1cc(OC(F)(F)F)c(F)c(-c2cc3cn(-c4ccc(CN[C@@H](C)C[C@H](CCO)NC(=N)N)cc4)c(=O)nc3[nH]2)c1` [Compound 361], the MIC in assay [1] and in assay [2] was below 16 µg/mL in each case.
